Assays:
neural stem cells [1] = test: Co-treatment amyloid-β and PEP-1: viability (MMT and CCK-8 assay); assay type: cell-based, rat; conditions: 20 μM amyloid-β protein, co-treated 48 hours
Protocol: (§1) To determine whether PEP 1 has the effect of suppressing the neurotoxicity caused by amyloid-β protein, 20 μM amyloid-β protein and various concentrations of PEP-1 were co-treated for 48 hours. The cell viability and apoptosis were measured using MMT assay, CCK-8 assay, LDH assay and TUNEL assay, and neural stem cell proliferation by BrdU assay.
(§2) (Refer to FIG. 8). LDH assay was carried out for assessment of the degree of cell death as another method, and we confirmed that the increase in cell death by amyloid-β decreased by PEP-1, and efficacy was seen starting at 1 μM concentration (Refer to FIG. 9).

neural stem cells [2] = test: Co-treatment amyloid-β and PEP-1: cell death (LDH assay); assay type: cell-based, rat; conditions: 20 μM amyloid-β protein, co-treated 48 hours
Protocol: as §1, §2

neural stem cells [3] = test: Co-treatment amyloid-β and PEP-1: proliferation (BrdU assay); assay type: cell-based, rat; conditions: 20 μM amyloid-β protein, co-treated 48 hours
Protocol: as §1
We also confirmed with BrdU assay that the decreased cell proliferation due to amyloid-β protein was restored when processed with PEP-1 (Refer to FIG. 10).

reactive oxygen species = test: Reactive oxygen species by DCF-DA staining in neural stem cells; assay type: cell-based, rat; conditions: 20 μM amyloid-β protein, PEP-1 1 μM, 10 μM, 50 μM
Protocol: The mechanism of action of PEP-1's protective effect on apoptosis by amyloid-β protein was investigated. First, it was investigated whether PEP-1 is capable of minimizing the oxidative damage caused by amyloid-β protein. Change in generation of reactive oxygen species after treatment with amyloid-β protein and PEP-1 was observed by using DCF-DA staining (Molecular Probes, Eugene, Oreg.). In the group in which reactive oxygen species increased due to 20 μM of amyloid-β protein, the increased reactive oxygen species decreased by PEP-1 treatment (1 μM, 10 μM, 50 μM) (Refer to FIG. 13).

[4] = tested on: ACSL5 (acyl-coA synthase); test: qPCR array in THP-1 cells; assay type: cell-based, human; conditions: LPS 10 ng/mL, 4 μM PEP-1, 4 h
Protocol: (§3) THP-1 cells (human monocytic leukemia derived cell line) were purchased from ATCC ([…] TYPE CULTURE COLLECTION®, Manassas, Va., USA) and cultured in RPMI-1640 (LIFE TECHNOLOGIES®, Carlsbad, Calif., USA) medium supplemented with 10% FBS (LIFE TECHNOLOGIES®), 1% penicillin/streptomycin (LIFE TECHNOLOGIES®), and 0.05 mM 2-mercaptoethanol (SIGMA-ALDRICH®, St. Louis, Mo., USA) at 37° C. in 5% CO2. THP-1 cells that normally grow in suspension were differentiated into an adherent macrophage-like phenotype in differentiation medium (complete growth medium containing 100 ng/mL phorbol 12-myristate 13-acetate (PMA, SIGMA-ALDRICH®)) for 24 hr. For differentiation, THP-1 cells (3×10^6 cells/plate, ˜95% confluency) were seeded into 10-cm tissue culture plates and incubated in differentiation medium.
(§4) Following differentiation, the macrophage-like THP-1 cells were washed twice using complete growth medium. Then, cells were treated with 10 ng/mL lipopolysaccharide (SIGMA-ALDRICH®) and/or 4 μM PEP-1 for 4 h at 37° C.
(§5) Total RNA was extracted and purified using RNeasy mini kit from QIAGEN® (Valencia, Calif., USA) following manufacturer's protocol. cDNAs were synthesized by reverse transcription using Reverse Transcription System from PROMEGA CORPORATION® (Madison, Wis., USA) according to the manufacturer's protocol.
(§6) Then, cDNA samples from THP-1 cells were used as template for real-time quantitative PCR (qPCR) analysis. For qPCR analysis, RT2 Profiler PCR Array kits were purchased from SABIOSCIENCES®/QIAGEN® (Valencia, Calif. USA). Four different PCR array kits analyzing separate signaling pathways used in the experiment are as follows: human signal transduction pathway finder, human inflammatory cytokines & receptors, human transcription factors, human NF-κB signaling pathway. PCR was performed with SYBR® Green qPCR detection system (QIAGEN®) using a BIO-RAD® (Hercules, Calif., USA) CFX 96 real-time PCR instrument. Thermocycling conditions were: 95° C. for 10 sec; 55° C. for 30 sec; 95° C. for 10 min; 95° C. for 10 sec, 55° C. for 30 sec, and 72° C. for 30 sec for 50 amplification cycles. Data represents the average value from three independent experiments, and % decrease was determined by the target gene expression in LPS treated samples vs. LPS+PEP-1 treated samples. Among 336 genes analyzed, only those showing statistically significant (p<0.05, student's t-test) % decrease were shown in table 7.

BCL10 = test: qPCR array in THP-1 cells; assay type: cell-based, human; conditions: LPS 10 ng/mL, 4 μM PEP-1, 4 h
Protocol: as §3, §4, §5, §6

CCL26/MIP4α = test: qPCR array in THP-1 cells; assay type: cell-based, human; conditions: LPS 10 ng/mL, 4 μM PEP-1, 4 h
Protocol: as §3, §4, §5, §6

CCL4/MIP1β = test: qPCR array in THP-1 cells; assay type: cell-based, human; conditions: LPS 10 ng/mL, 4 μM PEP-1, 4 h
Protocol: as §3, §4, §5, §6

CD40Ligand = test: qPCR array in THP-1 cells; assay type: cell-based, human; conditions: LPS 10 ng/mL, 4 μM PEP-1, 4 h
Protocol: as §3, §4, §5, §6

G-CSF = test: qPCR array in THP-1 cells; assay type: cell-based, human; conditions: LPS 10 ng/mL, 4 μM PEP-1, 4 h
Protocol: as §3, §4, §5, §6

GM-CSF = test: qPCR array in THP-1 cells; assay type: cell-based, human; conditions: LPS 10 ng/mL, 4 μM PEP-1, 4 h
Protocol: as §3, §4, §5, §6

IL10 = test: qPCR array in THP-1 cells; assay type: cell-based, human; conditions: LPS 10 ng/mL, 4 μM PEP-1, 4 h
Protocol: as §3, §4, §5, §6

IL17C = test: qPCR array in THP-1 cells; assay type: cell-based, human; conditions: LPS 10 ng/mL, 4 μM PEP-1, 4 h
Protocol: as §3, §4, §5, §6

ILlRa = test: qPCR array in THP-1 cells; assay type: cell-based, human; conditions: LPS 10 ng/mL, 4 μM PEP-1, 4 h
Protocol: as §3, §4, §5, §6

IkBα = test: qPCR array in THP-1 cells; assay type: cell-based, human; conditions: LPS 10 ng/mL, 4 μM PEP-1, 4 h
Protocol: as §3, §4, §5, §6

TNFR11B = test: qPCR array in THP-1 cells; assay type: cell-based, human; conditions: LPS 10 ng/mL, 4 μM PEP-1, 4 h
Protocol: as §3, §4, §5, §6

TNFα = test: qPCR array in THP-1 cells; assay type: cell-based, human; conditions: LPS 10 ng/mL, 4 μM PEP-1, 4 h
Protocol: as §3, §4, §5, §6

EARPALLTSRLRFIPK [PEP-1]
concentration at which protection from amyloid-β neurotoxicity began (neural stem cells [1]): 10 µM | concentration of most effective protection from amyloid-β neurotoxicity (neural stem cells [1]): 100 µM | concentration at which efficacy starts (LDH) (neural stem cells [2]): 1 µM | increase in cell death by amyloid-β (LDH) (neural stem cells [2]): decreased | cell proliferation decreased by amyloid-β (BrdU) (neural stem cells [3]): restored | reactive oxygen species increased by amyloid-β (reactive oxygen species): decreased | ACSL5 (acyl-coA synthase) % Decrease by PEP 1 (LPS + PEP-1/LPS), p < 0.05 [4]: ↓17% | BCL10 % Decrease by PEP 1 (LPS + PEP-1/LPS), p < 0.05 (BCL10): ↓↓32% | CCL26/MIP4α % Decrease by PEP 1 (LPS + PEP-1/LPS), p < 0.05 (CCL26/MIP4α): ↓↓↓42% | CCL4/MIP1β % Decrease by PEP 1 (LPS + PEP-1/LPS), p < 0.05 (CCL4/MIP1β): ↓22% | CD40Ligand % Decrease by PEP 1 (LPS + PEP-1/LPS), p < 0.05 (CD40Ligand): ↓18% | G-CSF % Decrease by PEP 1 (LPS + PEP-1/LPS), p < 0.05 (G-CSF): ↓↓↓48% | GM-CSF % Decrease by PEP 1 (LPS + PEP-1/LPS), p < 0.05 (GM-CSF): ↓↓29% | IL10 % Decrease by PEP 1 (LPS + PEP-1/LPS), p < 0.05 (IL10): ↓↓32% | IL17C % Decrease by PEP 1 (LPS + PEP-1/LPS), p < 0.05 (IL17C): ↓↓35% | ILlRa % Decrease by PEP 1 (LPS + PEP-1/LPS), p < 0.05 (ILlRa): ↓20% | IkBα % Decrease by PEP 1 (LPS + PEP-1/LPS), p < 0.05 (IkBα): ↓↓27% | TNFR11B % Decrease by PEP 1 (LPS + PEP-1/LPS), p < 0.05 (TNFR11B): ↓↓↓38% | TNFα % Decrease by PEP 1 (LPS + PEP-1/LPS), p < 0.05 (TNFα): ↓↓34%

Reference: US11369665B2, “Anti-inflammatory peptides and composition comprising the same” (GemVax & KAEL Co., Ltd., priority 2012, dated 2022)
